Literature values in US6635271B1, “Method for increasing the concentration of conjugated linoleic acid in milk and/or tissue fat of a ruminant” (Valio Oy, priority 1997, dated 2003).

Details: vaccenic acid fed to mice (Santora et al. 1998)

CCCCCC/C=C\CCCCCCCCCC(=O)O [vaccenic acid, trans-11 isomer of octadecenoic acid]
tissue fat CLA concentration: tripled
